We go through 1 compound from publication PMC7156724, “Potent BRD4 inhibitor suppresses cancer cell-macrophage interaction” (Nature Communications, 2020).

This assay has as its system A2780 OC cells and TAMs. In words: Orthotopic mouse OC model (intraperitoneal A2780 cells, with or without TAMs): tumor weight, ascitic fluid, IF and FACS. Format: in vivo. The text has this:
Shown are immunofluorescent staining of CD68 (macrophage marker, red) and E-Cadherin (cancer cells, green) (a) and quantification of CD68 positive cells (b) in vehicle, NHWD-870 treated H526 (n = 6) and A2780 (n = 5) tumors from Fig. 3a, b, respectively. Scale bar is 100 μm. […] Shown are representative immunofluorescent staining of Ki67 and CD68 (c) and quantification of percentage of Ki67+ cells in CD68+ cells (d). Scale bar is 30 μm. Data are presented as mean ± SEM of five different tumors. e Schematics of the animal experiments using an orthotopic mouse OC model, established by intraperitoneally injecting human A2780 cells into female recipient nude mice. Mice were then either untreated (Ctrl) or treated with NHWD-870 (PO, QD, 3 mg/kg) for 45 days. Half of the recipient mice received A2780 cells plus TAMs isolated from tumors of OC-bearing donor mice. f, g Tumor weights (f) and ascitic fluid volumes (g) at day 45 for mice in (e). […] Shown are representative immunofluorescent staining of Ki67 and CD68 (h) and quantification of Ki67^+CD68^− (i) or Ki67^+CD68^+ (j), or CD68^+ cells (k). Scale bar is 50 μm. Data are presented as mean ± SEM from five different mice. p values were calculated using two-tailed, unpaired t tests in this figure. *p < 0.05; **p < 0.01; ***p < 0.001. Source data are provided as a Source Data file.
To extend our findings, we examined the effects of NHWD-870 in an orthotopic mouse OC model, in which we intraperitoneally injected A2780 OC cells, alone or together with F4/80^+CD11b^+CD206^+ TAMs isolated from the tumor tissues of OC-bearing donor mice 3 days later (Fig. 4e). […] These phenotypes were due to increased proliferation of both tumor cells and macrophages (Ki67^+CD68^− and Ki67^+CD68^+ cells, respectively) (Fig. 4h–i, Ctrl+TAM vs Ctrl). […] The inability to rescue was not due to the limited amount of TAMs (Fig. 4k, CD68^+ cells and Supplementary Fig.11c, d, CD11b^+CD206^+ cells, NHWD-870+TAM vs Ctrl), but likely due to the limited number of proliferating TAMs (Fig. 4j, Ki67^+CD68^+ cells, NHWD-870+TAM vs Ctrl).
4–6 weeks old female BALB/c nude mice were used for most experiments, with the exception of 6–8 weeks old female C57BL/6 mice were used for B16F10 experiments, and 6–8 weeks old male BALB/c nude mice and SD rats were used for pharmacokinetic experiments. All animals were purchased from Shanghai SIPPR-Bk Lab Animal Co., Ltd. All animals were housed under a regimen of 12 h light/12 h dark cycles and specific pathogen-free conditions. 5×10^6 NCI-H526, ES-2, MDA-MB231, A2780, A375, B16F10, and TMD-8 cells (0.1 ml) were injected subcutaneously into female nude mice. The melanoma patient-derived xenograft model was derived from a human melanoma sample (BRAF, NARS and NF1 wild type, and p53 mutant) removed from a patient in Xiangya Hospital. Surgically removed tumor fragments were implanted subcutaneously into female NSG mice. […] Mouse body weight and tumor sizes were measured every 3 days. […] Ascitic volume and tumor weight were measured by an electronic balance. All the procedures were evaluated and approved by the Institutional Animal Care and Use Committee of Central South University and Yale University. […]
with anti-CD45, CD11b and CD206 followed by FACS analysis. Shown are representative FACS plots (c) and quantification of the percentage of CD11b+CD206+ cells (d). Data are presented as mean ± SEM from 5 different mice. p values were calculated using two-tailed, unpaired t tests. **, p<0.01; ***, p<0.001. […]

The mark [1] stands for this setting: day 45, PO, QD, 3 mg/kg, +TAM, 3 mg/kg.

“And” between values parts separate entries of the source, which are not always exact repeats. Equal entries are not always repeated.

On to `Cc1nnn(C)c1-c1cnc2c3c4cnn(C)c4ccc3n([C@H](c3ccccc3)C3CCOCC3)c2c1` [NHWD-870], for which, under setting [1], the “quantification of CD68+ cells” value was 15 and 17.9 and 19.9 and 12 and 16.7; the “quantification of Ki67+CD68− cells” value was 10 and 7 and 13 and 9. In addition, the “fold reduction, in vivo effects on TAMs” value (in vivo) is recorded as ~ 16 fold. Where the note is “mouse OC model, Fig. 4j”, the “inhibition of proliferating TAMs” value was determined as 94%. Moreover, under “mouse OC model, Fig. 4j, Ctrl […]”, the “proliferating TAMs (Ki67+CD68+ cells), mean” value amounted to 0.16%.
